Measured values reported in publication PMC2872594 (Clinical Medicine. Oncology, 2009).
Read-outs that look alike come from different tables or passages of the source.

Assays:
A2780/AD cells = assay: In vitro cytotoxicity (WSK-8) assay; format: cell-based
Description: In vitro cytotoxicity (WSK-8) assays
The proliferation of exponential phase cultures of A2780/AD cells was assessed by colorimetric assay (WSK-8). In brief, cells were plated onto a 96 well microtiter plates at 5,000 cells per well. After a 24 hour incubation period to facilitate adherence, the RPMI media was removed and replaced with 100 or 200 μL of fresh media containing the different concentrations of drug. The cells were then incubated for 1 or 3 days at 37 °C at 95% humidity and 5% CO2. The media was then removed, and replaced with 100 μL fresh media containing 10% WSK-8 dye. The plates were incubated for 1.5 hours and subsequently measured at 450 nm with a 96-well plate reader. A non-linear curve fitted to the concentrations tested was used and the data plotted using Origin software. Each concentration was run in triplicate, and drug was tested 3 times.

[1] = system: reduced folate carrier (RFC); conditions: cited from earlier work
folate receptor (FR) = conditions: cited from earlier work
[2] = biological target: T1, dihydrofolate reductase (DHFR) (Homo sapiens, UniProt P00374); assay: In vitro, cell free DHFR inhibition assay; format: biochemical; conditions: cell free colorimetric assay, absorbance over 2.5 minutes
T1 construct: purchased Sigma Aldrich
T1 sequence (P00374 1-187): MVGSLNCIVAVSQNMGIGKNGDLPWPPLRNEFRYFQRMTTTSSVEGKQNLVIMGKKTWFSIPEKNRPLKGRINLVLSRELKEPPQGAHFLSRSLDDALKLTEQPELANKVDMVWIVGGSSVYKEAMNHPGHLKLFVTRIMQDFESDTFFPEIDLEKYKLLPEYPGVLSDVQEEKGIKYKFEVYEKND
Description: In vitro, cell free DHFR inhibition assay
The DHFR calorimetric assay was purchased from Sigma Aldrich, and was performed according to instructions. Briefly, DHFR was mixed with inhibitor and NADPH.
The percent of control was plotted, and a fit using a power regression line used.

[3] = Stability study in PBS buffer (HPLC); format: physicochemical; conditions: phosphate buffered saline pH 7.4, 37 °C
Description: To explain the in vitro results, the stability of the compounds was examined. (3) was dissolved in phosphate buffered saline at a pH of 7.4, and incubated at 37 °C. Time points were taken at 24 and 72 hours. […] While not completely stable over the time tested, the stability of the carbamate linkage could be preventing the nucleoside from being released in the cell over the earlier time points. This is consistent with previous nucleoside conjugate work reported and the observation that (2) and (3) have a greater toxicity at 72 hours than the carrier system (1). The delay in the release could explain the discrepancies between the conjugated and the unconjugated systems.
(3) was dissolved in PBS buffer 1 at pH 7.4 in a concentration of [l mM]. The solution was incubated at 37 °C for 24 and 72 hours. Samples from the solution were examined using the HPLC Eclipse XDB C18 analytical column (4.6 × […]; Agilent Technologies). The method conditions were the same as the purification with a flow rate of 0.7 ml/min.

[4] = A2780AD, 24 h, read-out: In vitro IC50, 24 hours
[5] = A2780AD, 72 h, read-out: In vitro IC50, 72 hours
[6] = A2780/AD ovarian cancer cell line, 24 hours incubation, folate deficient media, read-out: In vitro IC50, 24 hours
[7] = A2780/AD ovarian cancer cell line, 72 hours incubation, folate deficient media, read-out: In vitro IC50, 72 hours

| Compound | IC50 (A2780/AD cells; [6]) [µM] | IC50 (A2780/AD cells; [7]) [µM] | IC50 [2] [µM] | further results |
| --- | --- | --- | --- | --- |
| Cc1cn([C@H]2C[C@H](N=[N+]=[N-])[C@@H](CO)O2)c(=O)[nH]c1=O [AZT, 3’-Azido-3’-deoxythymidine, reference compound] | – | – | – | IC50 (A2780/AD cells; [4]): > 10000 µM; IC50 (A2780/AD cells; [5]): 8000 ± 1000 µM |
| Nc1nc(=O)c2nc(CNc3ccc(C(=O)N[C@@H](CCC(=O)O)C(=O)O)cc3)cnc2[nH]1 [Folate, Folic acid] | – | – | – | Km [1]: 200 to 400 µM |
| CN(Cc1cnc2nc(N)nc(N)c2n1)c1ccc(C(=O)N[C@@H](CCC(=O)O)C(=O)O)cc1 [MTX, Methotrexate] | – | – | – | IC50 (A2780/AD cells; [4]): > 10000 µM; IC50 (A2780/AD cells; [5]): 7000 ± 900 µM; Km [1]: 5 to 10 µM; Greater affinity for the RFC over folate ([1]; relative to folate): 100 times; Lower affinity of FR for MTX over folate (folate receptor (FR); relative to folate): approximately 100 fold; Less affinity for the FR than oxidized folate (folate receptor (FR); relative to oxidized folate): 100 fold |
| γ-MTX-PEG-AZT [Compound 2] | > 1000 | 430 ± 30 | 152 | – |
| γ-MTX-PEG-IUdR [Compound 3] | > 1000 | 211 ± 100 | 394 | Stability, free nucleoside after 24 hours ([3]; 24 hours): no sign of free nucleoside; Stability, free nucleoside after 72 hours ([3]; 72 hours): partial decomposition |
| γ-MTX-PEG-NH2 [Compound 1] | > 1000 | 700 ± 100 | 200 | – |
| γ-MTX-PEG-ddC [Compound 4] | > 1000 | 960 ± 80 | 178 | – |
